Laboratory results as given in article PMC7154662, “Structural Insight into IAPP‐Derived Amyloid Inhibitors and Their Mechanism of Action” (Angewandte Chemie (International Ed. in English), 2020).
Non-standard residues stand in square brackets, D forms with d. Residues, ends and D or L forms follow the SMILES beside them. NMeI = CC[C@H](C)[C@H](NC)C(=O)O; Sar = CNCC(=O)O

Target: T1, R3-GI (Homo sapiens, UniProt P10997, N54R/S52R/S53R)
T1 construct: linking the two hot segments IAPP(8–18) and IAPP(22–28) in native or N‐methylated form; made in house; host or cells: chemical solid phase peptide synthesis (no expression host)
T1 sequence (P10997 41-61 S52R/S53R/N54R): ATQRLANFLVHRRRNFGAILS
Assay: Fluorescence titration: self-association of Fluos-R3-GI with R3-GI
Conditions: Fluos-R3-GI 5 nM titrated with R3-GI; 10 mM sodium phosphate buffer, pH 7.4 (1% HFIP); room temperature, 2-5 min after solution preparation; excitation 492 nm; means (±SEM) from three binding curves; read-out: app. Kd for R3-GI self-association
Source text: Figure 1 R3‐GI self‐assembly. […] On the right, the binding curve is shown. The estimated app. […] Data are means (±SEM) from three binding curves. […] Scale bar: 10 μm.
The sampling of the 12 replicas was combined resulting in the ensemble of conformations were the statistical weight of each conformation is obtained by a simple reweighting scheme based on the final metadynamics bias B. The weight of a conformation X is given by w=exp(+B(X)/kBT), consistently with the quasi static behavior at convergence of well- […]
Coarse-grained modelling of R3-GI oligomers
To investigate the interaction of the peptides with each other, over 100 μs of coarse grain simulations were performed using GROMACS. An initial peptide model was created based on a representative structure from the atomistic ensemble. The Martini 2.2 force field was used to describe the peptide interaction together with the standard Martini water model.
Additionally, an elastic network was applied to conserve structural information. […]
Fluorescence spectroscopic titrations
A JASCO FP-6500 fluorescence spectrophotometer was used and titrations were performed as previously described. Briefly, excitation was at 492 nm and fluorescence emission spectra were recorded between 500 and 600 nm. […]
temperature within 2-5 min following solution preparation. The determined app. […]

**Q.** With `CC[C@H](C)[C@@H](C(=O)N[C@@H](CC(C)C)C(=O)N[C@@H](CO)C(N)=O)N(C)C(=O)[C@H](C)NC(=O)CN(C)C(=O)[C@H](Cc1ccccc1)NC(=O)[C@H](CC(N)=O)NC(=O)[C@H](CCCNC(=N)N)NC(=O)[C@H](CCCNC(=N)N)NC(=O)[C@H](CCCNC(=N)N)NC(=O)[C@H](Cc1c[nH]cn1)NC(=O)[C@@H](NC(=O)[C@H](CC(C)C)NC(=O)[C@H](Cc1ccccc1)NC(=O)[C@H](CC(N)=O)NC(=O)[C@H](C)NC(=O)[C@H](CC(C)C)NC(=O)[C@H](CCCNC(=N)N)NC(=O)[C@H](CCC(N)=O)NC(=O)[C@@H](NC(=O)[C@H](C)N)[C@@H](C)O)C(C)C` [R3-GI] (H-ATQRLANFLVHRRRNF[Sar]A[NMeI]LS-NH2) as the molecule, how does the Kd read?
**A.** 77.1 nM
